Measurements: PubChem BioAssay (NCI)
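Grown in 96-well plates, cells were treated for 48 hours with each compound at five concentrations. Insufficient inhibition: endpoint recorded as highest concentration tested. TGI marks complete inhibition of growth.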

Key:
Assay in all cases: growth of human tumour cells (NCI), 48 h
[1] = test system: NCI-H460 lung
[2] = test system: MDA-N
[3] = test system: SK-MEL-2 melanoma
[4] = test system: MALME-3M melanoma
[5] = test system: OVCAR-4 ovarian
[6] = test system: LOX IMVI melanoma
[7] = test system: EKVX NSCLC
[8] = test system: SK-OV-3 ovarian
[9] = test system: COLO 205 colon
[10] = test system: A498 renal
[11] = test system: KM12 colon
[12] = test system: OVCAR-5 ovarian
[13] = test system: BT-549 breast
[14] = test system: NCI/ADR-RES ovarian
[15] = test system: T-47D breast
[16] = test system: DU-145 prostate
[17] = test system: CAKI-1 renal
[18] = test system: HOP-62 NSCLC
[19] = test system: NCI-H23 lung
[20] = test system: UACC-62 melanoma
[21] = test system: HCT-15 colon
[22] = test system: A549 NSCLC
[23] = test system: HCT-116 colon
[24] = test system: MOLT-4 leukemia
[25] = test system: HT29 colon
[26] = test system: 786-0 renal
[27] = test system: SF-268 CNS
[28] = test system: SW-620 colon
[29] = test system: SF-539 CNS
[30] = test system: HS 578T breast
[31] = test system: SR leukemia
[32] = test system: OVCAR-8 ovarian
[33] = test system: RXF 393 renal
[34] = test system: UACC-257 melanoma
[35] = test system: PC-3 prostate
[36] = test system: TK-10 renal
[37] = test system: SN12C renal
[38] = test system: SF-295 CNS
[39] = test system: MCF7 breast
[40] = test system: ACHN renal
[41] = test system: RPMI-8226 leukemia
[42] = test system: CCRF-CEM leukemia
[43] = test system: MDA-MB-435
[44] = test system: IGROV1 ovarian
[45] = test system: OVCAR-3 ovarian
[46] = test system: HCC-2998 colon
[47] = test system: SK-MEL-28 melanoma
[48] = test system: HL-60(TB) leukemia
[49] = test system: U251 CNS
[50] = test system: K-562 leukemia
[51] = test system: NCI-H226 lung
[52] = test system: M14 melanoma
[53] = test system: UO-31 renal
[54] = test system: NCI-H522 lung
[55] = test system: MDA-MB-231 breast
[56] = test system: SNB-19 CNS
[57] = test system: HOP-92 NSCLC
[58] = test system: SK-MEL-5 melanoma
[59] = test system: SNB-75 CNS

`CCCNC1=C2C[C@@H](C)C[C@@H](OC)[C@@H](OC(=O)CCCN)[C@H](C)/C=C(\C)[C@@H](OC(N)=O)[C@H](OC)/C=C\C=C(/C)C(=O)NC(=CC1=O)C2=O` showed a TGI [1] of 34.1 µM, a TGI [2] of 30.1 µM and a TGI [3] of 30.9 µM. It also gave a TGI [4] of 28.4 µM, a TGI [5] of 39.4 µM and a TGI [6] greater than 48.3 µM. The TGI [7] was 37.5 µM, the TGI [8] was 32.4 µM and the TGI [9] was 12.1 µM. It also gave a TGI [10] of 37.1 µM, a TGI [11] of 26.1 µM and a TGI [12] of 30.5 µM. It also gave a TGI [13] of 29.4 µM, a TGI [14] of 86.2 µM and a TGI [15] of 28.5 µM. For the same compound, the TGI [16] was 26.3 µM, the TGI [17] was 38.5 µM and the TGI [18] was 31.3 µM. It also gave a TGI [19] of 29.4 µM, a TGI [20] of 29.4 µM and a TGI [21] of 46.8 µM. The TGI [22] was 40.6 µM, the TGI [23] was 28.3 µM and the TGI [24] was 19.2 µM. For the same compound, the TGI [25] was 22.9 µM, the TGI [26] was 53.9 µM and the TGI [27] was 36.7 µM. For the same compound, the TGI [28] was greater than 43.8 µM, the TGI [29] was 39.9 µM and the TGI [30] was 60.9 µM. The TGI [31] was greater than 23.8 µM, the TGI [32] was 43.7 µM and the TGI [33] was 33.3 µM. The TGI [34] was 12 µM, the TGI [35] was 26.9 µM and the TGI [36] was 36.1 µM. It also gave a TGI [37] greater than 48.8 µM, a TGI [38] of 36.8 µM and a TGI [39] of 31.4 µM. The TGI [40] was 37.6 µM, the TGI [41] was 29.1 µM and the TGI [42] was 6.8 µM. The TGI [43] was 32.2 µM, the TGI [44] was 34.8 µM and the TGI [45] was 24 µM. It also gave a TGI [46] of 38.1 µM, a TGI [47] of 36.1 µM and a TGI [48] of 8.01 µM. For the same compound, the TGI [49] was greater than 35 µM, the TGI [50] was greater than 20.9 µM and the TGI [51] was 39.8 µM. The TGI [52] was 32.3 µM, the TGI [53] was 36.1 µM and the TGI [54] was 19.1 µM. It also gave a TGI [55] of 36.7 µM, a TGI [56] of 29.7 µM and a TGI [57] of 25.8 µM. For the same compound, the TGI [58] was 24.5 µM.
`Nc1nc(Cl)cc(NCC2(CO)CCCCC2)n1` was tested, and the TGI [1] was greater than 100 µM, the TGI [2] was greater than 100 µM and the TGI [3] was greater than 100 µM. For the same compound, the TGI [4] was greater than 100 µM, the TGI [5] was greater than 100 µM and the TGI [6] was greater than 100 µM. It also gave a TGI [7] greater than 100 µM, a TGI [8] greater than 100 µM and a TGI [9] greater than 100 µM. For the same compound, the TGI [10] was greater than 100 µM, the TGI [11] was greater than 100 µM and the TGI [12] was greater than 100 µM. For the same compound, the TGI [13] was greater than 100 µM, the TGI [14] was greater than 100 µM and the TGI [15] was greater than 100 µM. It also gave a TGI [16] greater than 100 µM, a TGI [17] greater than 100 µM and a TGI [18] greater than 100 µM. The TGI [19] was greater than 100 µM, the TGI [20] was greater than 100 µM and the TGI [21] was greater than 100 µM. For the same compound, the TGI [22] was greater than 100 µM, the TGI [23] was greater than 100 µM and the TGI [24] was greater than 100 µM. It also gave a TGI [25] greater than 100 µM, a TGI [26] greater than 100 µM and a TGI [27] greater than 100 µM. For the same compound, the TGI [28] was greater than 100 µM, the TGI [29] was greater than 100 µM and the TGI [30] was greater than 100 µM. It also gave a TGI [31] greater than 100 µM, a TGI [32] greater than 100 µM and a TGI [33] greater than 100 µM. It also gave a TGI [34] greater than 100 µM, a TGI [35] greater than 100 µM and a TGI [36] greater than 100 µM. The TGI [37] was greater than 100 µM, the TGI [38] was greater than 100 µM and the TGI [39] was greater than 100 µM. For the same compound, the TGI [40] was greater than 100 µM, the TGI [41] was greater than 100 µM and the TGI [59] was greater than 100 µM. The TGI [42] was greater than 100 µM, the TGI [43] was greater than 100 µM and the TGI [44] was greater than 100 µM. For the same compound, the TGI [45] was greater than 100 µM, the TGI [47] was greater than 100 µM and the TGI [48] was greater than 100 µM. It also gave a TGI [49] greater than 100 µM, a TGI [50] greater than 100 µM and a TGI [51] greater than 100 µM. It also gave a TGI [52] greater than 100 µM, a TGI [53] greater than 100 µM and a TGI [54] greater than 100 µM. The TGI [55] was greater than 100 µM, the TGI [56] was greater than 100 µM and the TGI [57] was greater than 100 µM. It also gave a TGI [58] greater than 100 µM.
